Results from US9309248B2, “Azaindolines” (Hoffmann-La Roche Inc., priority 2012, dated 2016).

Legend:
BIR3 domain of XIAP = molecular target: T1, BIR3 domain of XIAP (Homo sapiens, UniProt P98170); experiment: TR-FRET assay for BIR3 (inhibition of binding of XIAP BIR3 domain to SMAC-derived Peptide A); conditions: 6x Histidine-tagged BIR3 domain (amino acids 241-356 of XIAP) 10 nM, Peptide A 20 nM
T1 construct: BIR3 domain, corresponding to amino acids 241-356 of XIAP
Method in brief: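 His6-tagged XIAP BIR3 (aa 241-356, 10 nM) was mixed with 20 nM biotinylated SMAC-derived peptide in 50 mM Tris-Cl pH 7.5, 100 mM NaCl, 1 mM DTT, 0.1 mg/mL BSA and incubated 45 min at 37 °C. Eu-streptavidin (1.5 nM) and APC anti-His (15 nM) were added, with TR-FRET read 1 h later at RT. IC50 came from % inhibition over 10 serial concentrations.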

BIR2 domain of XIAP = molecular target: T2, BIR2 domain of XIAP (Homo sapiens, UniProt P98170, C202A/C213G); experiment: TR-FRET assay for BIR2 (inhibition of binding of XIAP BIR2 domain to SMAC-derived Peptide A); conditions: 6x Histidine-tagged BIR2 domain (amino acids 124-240 of XIAP) 10 nM, Peptide A 20 nM
T2 construct: 6× Histidine-tagged BIR2 domain, corresponding to amino acids 124-240 of XIAP
Method in brief: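 Inhibition of binding of the XIAP BIR2 domain (C202A/C213G) to biotinylated SMAC-derived Peptide A was measured. TR-FRET signal was read after 1 h at room temperature.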

T2 sequence (P98170 with tags, fused parts or gaps C202A/C213G): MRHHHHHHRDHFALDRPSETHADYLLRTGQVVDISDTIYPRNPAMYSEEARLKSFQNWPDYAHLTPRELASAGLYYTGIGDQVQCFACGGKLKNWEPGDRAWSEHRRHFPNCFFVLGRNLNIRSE
T1 sequence (P98170 with tags, fused parts or gaps): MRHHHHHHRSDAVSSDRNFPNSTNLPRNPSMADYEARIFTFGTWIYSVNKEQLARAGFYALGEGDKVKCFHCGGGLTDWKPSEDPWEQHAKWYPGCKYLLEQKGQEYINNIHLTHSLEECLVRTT

SMILES	IC50 (BIR3 domain of XIAP) [µM]	IC50 (BIR2 domain of XIAP) [µM]
C[C@H](NCCO)C(=O)N[C@H](C(=O)N1c2ncccc2C[C@H]1C(=O)Nc1ccccc1)C1CCCCC1 [Example 91, (S)-1-{(S)-2-Cyclohexyl-2-[(S)-2-(2-hydroxy-ethylamino)-propionylamino]-acetyl}-2,3-dihydro-1H-pyrrolo[2,3-b]pyridine-2-carboxylic acid phenylamide]	> 54.8	0.155
CC(C)[C@H](NC(=O)[C@H](C)NCCS(C)(=O)=O)C(=O)N1c2ncccc2C[C@H]1C(=O)Nc1c(F)cccc1F [Example 92, (S)-1-{(S)-2-[(S)-2-(2-Methanesulfonyl-ethylamino)-propionylamino]-3-methyl-butyryl}-2,3-dihydro-1H-pyrrolo[2,3-b]pyridine-2-carboxylic acid (2,6-difluoro-phenyl)-amide]	> 54.8	2.57
CN[C@@H](C)C(=O)N[C@H](C(=O)N1c2ncccc2C[C@H]1C(=O)Nc1c(F)cccc1F)C1CCOCC1 [Example 94, (S)-1-[(S)-2-((S)-2-Methylamino-propionylamino)-2-(tetrahydro-pyran-4-yl)-acetyl]-2,3-dihydro-1H-pyrrolo[2,3-b]pyridine-2-carboxylic acid (2,6-difluoro-phenyl)-amide]	> 54.8	0.00979
CN[C@@H](C)C(=O)N[C@H](C(=O)N1c2ncccc2C[C@@H]1C(=O)Nc1c(F)cccc1F)C1CCOCC1 [Example 95, (R)-1-[(S)-2-((S)-2-Methylamino-propionylamino)-2-(tetrahydro-pyran-4-yl)-acetyl]-2,3-dihydro-1H-pyrrolo[2,3-b]pyridine-2-carboxylic acid (2,6-difluoro-phenyl)-amide]	> 54.8	0.607
CN[C@@H](C)C(=O)N[C@@H](CCS(C)(=O)=O)C(=O)N1c2ncccc2C[C@H]1C(=O)Nc1ccccc1 [Example 96, 1-[(S)-4-Methanesulfonyl-2-((S)-2-methylamino-propionylamino)-butyryl]-2,3-dihydro-1H-pyrrolo[2,3-b]pyridine-2-carboxylic acid phenylamide]	> 54.8	0.108
CN[C@@H](C)C(=O)N[C@@H](CCS(C)(=O)=O)C(=O)N1c2ncccc2C[C@@H]1C(=O)Nc1ccccc1 [Example 97, 1-[(S)-4-Methanesulfonyl-2-((S)-2-methylamino-propionylamino)-butyryl]-2,3-dihydro-1H-pyrrolo[2,3-b]pyridine-2-carboxylic acid phenylamide]	> 54.8	3.06
CN[C@@H](C)C(=O)N[C@H](C(=O)N1c2ncccc2C(C)C1C(=O)Nc1c(F)cccc1F)C(C)C (stereo partly drawn) [Example 98, 3-Methyl-1-[(S)-3-methyl-2-((S)-2-methylamino-propionylamino)-butyryl]-2,3-dihydro-1H-pyrrolo[2,3-b]pyridine-2-carboxylic acid (2,6-difluoro-phenyl)-amide]	> 54.8	0.017
CN[C@@H](C)C(=O)N[C@H](C(=O)N1c2ncccc2C[C@H]1C(=O)Nc1c(C)cccc1F)C1CCOCC1 [Example 99, (S)-1-[(S)-2-((S)-2-Methylamino-propionylamino)-2-(tetrahydro-pyran-4-yl)-acetyl]-2,3-dihydro-1H-pyrrolo[2,3-b]pyridine-2-carboxylic acid (2-fluoro-6-methyl-phenyl)-amide]	> 54.8	0.0116

The next lines start with the values.

IC50 (BIR3 domain of XIAP) [µM]	IC50 (BIR2 domain of XIAP) [µM]	SMILES
> 54.8	10.4	CC[C@H](NC)C(=O)N[C@H](C(=O)N1c2ncccc2C[C@@H]1C(=O)Nc1ccccc1)C1CCCCC1 [Example 81, (R)-1-[(S)-2-Cyclohexyl-2-((S)-2-methylamino-butyrylamino)-acetyl]-2,3-dihydro-1H-pyrrolo[2,3-b]pyridine-2-carboxylic acid phenylamide]
> 54.8	0.105	CC[C@H](NC)C(=O)N[C@H](C(=O)N1c2ncccc2C[C@H]1C(=O)Nc1ccccc1)C1CCCCC1 [Example 82, 1-[(S)-2-Cyclohexyl-2-((S)-2-methylamino-butyrylamino)-acetyl]-2,3-dihydro-1H-pyrrolo[2,3-b]pyridine-2-carboxylic acid phenylamide]
> 54.8	0.0528	[2H]C([2H])([2H])N[C@@H](CC)C(=O)N[C@H](C(=O)N1c2ncccc2C[C@H]1C(=O)Nc1ccccc1)C1CCCCC1 [Example 83, 1-[(S)-2-Cyclohexyl-2-((S)-2-(d3-methyl)amino-butyrylamino)-acetyl]-2,3-dihydro-1H-pyrrolo[2,3-b]pyridine-2-carboxylic acid phenylamide]
> 54.8	0.0691	CC[C@H](NC)C(=O)N[C@H](C(=O)N1c2ncccc2C[C@H]1C(=O)Nc1ccccc1)C(C)C [Example 85, (S)-1-[(S)-3-Methyl-2-((S)-2-methylamino-butyrylamino)-butyryl]-2,3-dihydro-1H-pyrrolo[2,3-b]pyridine-2-carboxylic acid phenylamide]
> 54.8	0.0656	[2H]C([2H])([2H])N[C@@H](CC)C(=O)N[C@H](C(=O)N1c2ncccc2C[C@H]1C(=O)Nc1ccccc1)C(C)C [Example 86, (S)-1-[(S)-3-Methyl-2-((S)-2-(d3-methyl)amino-butyrylamino)-butyryl]-2,3-dihydro-1H-pyrrolo[2,3-b]pyridine-2-carboxylic acid phenylamide]
> 54.8	0.234	CCN[C@@H](C)C(=O)N[C@H](C(=O)N1c2ncccc2C[C@H]1C(=O)Nc1ccccc1)C(C)C [Example 87, (S)-1-[(S)-2-((S)-2-Ethylamino-propionylamino)-3-methyl-butyryl]-2,3-dihydro-1H-pyrrolo[2,3-b]pyridine-2-carboxylic acid phenylamide]
> 54.8	0.211	CCN[C@@H](CC)C(=O)N[C@H](C(=O)N1c2ncccc2C[C@H]1C(=O)Nc1ccccc1)C(C)C [Example 88, (S)-1-[(S)-2-((S)-2-Ethylamino-butyrylamino)-3-methyl-butyryl]-2,3-dihydro-1H-pyrrolo[2,3-b]pyridine-2-carboxylic acid phenylamide]
> 54.8	0.266	CC(C)[C@H](NC(=O)[C@H](C)NCCO)C(=O)N1c2ncccc2C[C@H]1C(=O)Nc1ccccc1 [Example 89, (S)-1-{(S)-2-[(S)-2-(2-Hydroxy-ethylamino)-propionylamino]-3-methyl-butyryl}-2,3-dihydro-1H-pyrrolo[2,3-b]pyridine-2-carboxylic acid phenylamide]
> 54.8	1.61	CC[C@H](NCCO)C(=O)N[C@H](C(=O)N1c2ncccc2C[C@H]1C(=O)Nc1ccccc1)C(C)C [Example 90, (S)-1-{(S)-2-[(S)-2-(2-Hydroxy-ethylamino)-butyrylamino]-3-methyl-butyryl}-2,3-dihydro-1H-pyrrolo[2,3-b]pyridine-2-carboxylic acid phenylamide]
